The record followed here is ChEMBL document CHEMBL1122407, “Synthesis and biological activity of various 3'-azido and 3'-amino analogues of 5-substituted pyrimidine deoxyribonucleosides” (1983).

Several values for one entry are separate records, joined by “and”; a condition that tells them apart may be missing. Equal entries are not always repeated. Activity calls are given as the source filed them. No cut-off for these calls is given here.

The target of assay [1] is Deoxycytidine kinase (Mus musculus) (UniProt P43346). The assay is described as follows: Inhibitory activity against deoxycytidine kinase from L1210 cells. It is filed as cell-based. Set-up: concentration or dose not given beside the values; scale not given: the % may be the effect or the level left.
Assay [2] has as its target T1, Thymidine kinase, cytosolic (Mus musculus) (UniProt P04184).
T1 sequence (whole entry): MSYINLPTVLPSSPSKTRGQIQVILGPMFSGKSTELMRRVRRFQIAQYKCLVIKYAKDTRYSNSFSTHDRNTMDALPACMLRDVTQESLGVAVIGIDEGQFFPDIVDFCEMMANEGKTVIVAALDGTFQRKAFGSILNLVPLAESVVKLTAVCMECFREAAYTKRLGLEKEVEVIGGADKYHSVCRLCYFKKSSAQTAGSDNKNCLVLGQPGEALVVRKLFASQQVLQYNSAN
Kind of assay: Inhibitory activity against thymidine kinase (TK) from L1210 cells. It is filed as cell-based. Set-up: concentration or dose not given beside the values.

Assay [3] relates to Sarcoma-180. Kind of assay: In vitro inhibition against replication of […] cells; inactive. The class given is functional, cell-based. The note with it: Mus musculus.
Assay [4] has as its system L1210. The assay is described as follows: In vitro inhibition against replication of L1210 murine cells; inactive. The class given is functional, cell-based. The note with it: Mus musculus.
Assay [5] has as its system L1210. Kind of assay: In vitro inhibition against replication of L1210 murine cells. The class given is functional. The note with it: Mus musculus, read-out: ED50 (the source's name).
The test system of assay [6] is Sarcoma-180. The assay is described as follows: In vitro inhibition against replication of Sarcoma-80 cells. The class given is functional. The note with it: Mus musculus, read-out: ED50 (the source's name).

Deoxycytidine kinase (Mus musculus), sequence (P43346 whole entry, looked up): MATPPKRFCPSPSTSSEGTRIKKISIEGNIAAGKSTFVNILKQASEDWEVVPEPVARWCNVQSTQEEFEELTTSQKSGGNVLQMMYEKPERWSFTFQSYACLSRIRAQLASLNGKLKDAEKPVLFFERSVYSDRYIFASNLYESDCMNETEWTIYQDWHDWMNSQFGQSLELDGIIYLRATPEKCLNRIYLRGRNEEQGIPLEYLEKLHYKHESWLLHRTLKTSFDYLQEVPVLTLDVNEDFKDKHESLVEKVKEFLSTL

For `Cc1cn([C@H]2C[C@H](N=[N+]=[N-])[C@@H](CO)O2)c(=O)nc1N`, the Activity is 62% and 55% in assay [1]; 92% and 81% in assay [2]. In addition, the ED50 entry in assay [3] and in assay [4] was “inactive” throughout.
For the molecule `O=c1[nH]c(=O)n([C@H]2C[C@H](O)[C@@H](CO)O2)cc1I`, the Activity in assay [1] is 87% and 97%.
`N[C@@H]1C[C@H](n2cc(F)c(=O)[nH]c2=O)O[C@@H]1CO`: the Activity was 93% in assay [1]; 92% and 82% in assay [2]. Further, the EC50 in assay [5] worked out at 15 µM; in assay [6], 1 µM.
Turning to `[N-]=[N+]=N[C@H]1C[C@H](n2cc(F)c(=O)[nH]c2=O)O[C@@H]1CO`, the Activity in assay [1] was 94% and 89%; in assay [2] it was 78% and 71%. The results for the EC50 in assay [5] and in assay [6] were 20 µM and 40 µM, respectively.
On to `N[C@@H]1C[C@H](n2cc(C(F)(F)F)c(=O)[nH]c2=O)O[C@@H]1CO`, for which the Activity in assay [1] is 101% and 87%; in assay [2] it was 81% and 61%. For the same molecule, the EC50 in assay [5] was 150 µM; in assay [6], 100 µM.
Consider `N[C@H]1C[C@H](n2ccc(=O)[nH]c2=O)O[C@@H]1CO`, for which, in assay [1], the Activity is 97% and 94%. The figures for the EC50 in assay [5] and in assay [6] were 18 µM and 50 µM, respectively.
Consider `O=c1ccn([C@H]2C[C@H](O)[C@@H](CO)O2)c(=O)[nH]1`, for which the Activity in assay [1] was 88% and 92%.
In the case of `Cc1cn([C@H]2C[C@@H](N=[N+]=[N-])[C@@H](CF)O2)c(=O)[nH]c1=O`, the Activity was 93% and 89% in assay [1]; 93% and 95% in assay [2]. Also, the ED50 entry in assay [3] and in assay [4] was “inactive” in each case.
`[N-]=[N+]=N[C@H]1C[C@H](n2cc(C(F)(F)F)c(=O)[nH]c2=O)O[C@@H]1CO`: the Activity in assay [1] is 91% and 85%. Moreover, the EC50 in assay [5] turned out to be 400 µM; in assay [6] it was 100 µM.
On to `Cc1cn([C@H]2C[C@@H](N)[C@@H](CF)O2)c(=O)[nH]c1=O`, for which the Activity in assay [1] is 91% and 88%; in assay [2] it was 89% and 83%. The ED50 entry in assay [3] and in assay [4] was “inactive” each time.
`Cc1cn([C@H]2C[C@H](N)[C@@H](CO)O2)c(=O)[nH]c1=O`: the Activity in assay [1] was 96% and 87%; in assay [2] it was 95% and 72%.
Regarding `Cc1cn([C@H]2C[C@H](N=[N+]=[N-])[C@@H](CO)O2)c(=O)[nH]c1=O`, the Activity in assay [1] is 89% and 84%.
Take `[N-]=[N+]=N[C@H]1C[C@H](n2ccc(N)nc2=O)O[C@@H]1CO`: the Activity in assay [1] is 86% and 78%; in assay [2], 85% and 72%. Moreover, the ED50 result in assay [3] and in assay [4] was “inactive” throughout.
`Nc1nc(=O)n([C@H]2C[C@@H](N)[C@@H](CO)O2)cc1F`: the Activity was 82% and 73% in assay [1]; 81% and 70% in assay [2]. For the same molecule, the EC50 turned out to be 10 µM in assay [5] and 1 µM in assay [6].
Take `[N-]=[N+]=N[C@H]1C[C@H](n2cc(F)c(N)nc2=O)O[C@@H]1CO`: the Activity was 70% and 61% in assay [1]; 88% and 103% in assay [2]. The EC50 in assay [5] came to 25 µM.
For the molecule `Cc1cn([C@H]2C[C@@H](N)[C@@H](CO)O2)c(=O)nc1N`, the Activity in assay [1] is 90% and 82%; in assay [2], 93% and 80%. Besides, the EC50 came out at 25 µM in assay [5] and 20 µM in assay [6].
Turning to `N[C@@H]1C[C@H](n2cc(I)c(=O)[nH]c2=O)O[C@@H]1CO`, the Activity in assay [1] was 87% and 91%; in assay [2] it was 95% and 71%. Also, in assay [5], the EC50 stood at 400 µM.
`[N-]=[N+]=N[C@H]1C[C@H](n2ccc(=O)[nH]c2=O)O[C@@H]1CO`: the Activity in assay [1] stood at 92%. The ED50 entry in assay [3] and in assay [4] was “inactive” each time.
`Nc1ccn([C@H]2C[C@H](N)[C@@H](CO)O2)c(=O)n1`: the Activity was 89% and 85% in assay [1]; 77% and 84% in assay [2]. Moreover, the results for the EC50 in assay [5] and in assay [6] were 0.7 µM and 4 µM, respectively.
